From the Kinase Knowledgebase extract (Sharma et al. 2016)

Key:
PIK3CA (human) = PIK3CA (human) (UniProt P42336); assay: Assessment of PIK3CA Kinase Activity
PIK3CD (Human) = PIK3CD (Human) (UniProt O00329); assay: Assessment of PIK3CD Kinase Activity
PIK3CG (human) = PIK3CG (human) (UniProt P48736); assay: Assessment of PIK3CG Kinase Activity
PIK3CB (Human) = PIK3CB (Human) (UniProt P42338); assay: Assessment of PIK3CB Kinase Activity
PIK3CB (Human), sequence (P42338 whole entry, looked up): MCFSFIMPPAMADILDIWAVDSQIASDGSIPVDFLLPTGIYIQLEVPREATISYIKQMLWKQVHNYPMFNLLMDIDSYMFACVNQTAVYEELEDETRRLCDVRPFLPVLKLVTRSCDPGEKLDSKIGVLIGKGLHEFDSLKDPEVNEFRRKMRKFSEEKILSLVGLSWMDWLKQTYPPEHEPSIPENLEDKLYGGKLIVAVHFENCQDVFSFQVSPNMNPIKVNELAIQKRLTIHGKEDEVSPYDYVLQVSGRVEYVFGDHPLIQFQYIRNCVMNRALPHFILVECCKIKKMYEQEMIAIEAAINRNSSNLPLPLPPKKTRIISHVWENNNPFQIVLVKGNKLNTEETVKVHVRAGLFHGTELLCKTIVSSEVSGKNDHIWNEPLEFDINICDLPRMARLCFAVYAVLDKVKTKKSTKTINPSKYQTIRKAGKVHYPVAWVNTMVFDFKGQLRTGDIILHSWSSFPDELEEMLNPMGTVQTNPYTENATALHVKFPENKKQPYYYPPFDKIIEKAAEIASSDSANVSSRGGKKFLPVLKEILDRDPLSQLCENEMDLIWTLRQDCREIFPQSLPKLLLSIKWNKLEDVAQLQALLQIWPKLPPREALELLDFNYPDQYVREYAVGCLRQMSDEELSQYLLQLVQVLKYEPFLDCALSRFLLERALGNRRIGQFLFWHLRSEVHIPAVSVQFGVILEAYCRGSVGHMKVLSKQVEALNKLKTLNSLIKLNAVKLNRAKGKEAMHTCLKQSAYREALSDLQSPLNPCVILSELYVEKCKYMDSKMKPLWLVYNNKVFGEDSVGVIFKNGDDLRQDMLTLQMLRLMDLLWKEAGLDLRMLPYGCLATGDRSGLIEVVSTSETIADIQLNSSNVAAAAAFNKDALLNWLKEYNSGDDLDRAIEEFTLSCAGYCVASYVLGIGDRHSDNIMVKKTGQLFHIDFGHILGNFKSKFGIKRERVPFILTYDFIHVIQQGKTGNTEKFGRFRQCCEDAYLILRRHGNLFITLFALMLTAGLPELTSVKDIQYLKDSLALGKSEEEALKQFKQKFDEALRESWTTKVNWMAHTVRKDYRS

PIK3CG (human), sequence (P48736 whole entry, looked up): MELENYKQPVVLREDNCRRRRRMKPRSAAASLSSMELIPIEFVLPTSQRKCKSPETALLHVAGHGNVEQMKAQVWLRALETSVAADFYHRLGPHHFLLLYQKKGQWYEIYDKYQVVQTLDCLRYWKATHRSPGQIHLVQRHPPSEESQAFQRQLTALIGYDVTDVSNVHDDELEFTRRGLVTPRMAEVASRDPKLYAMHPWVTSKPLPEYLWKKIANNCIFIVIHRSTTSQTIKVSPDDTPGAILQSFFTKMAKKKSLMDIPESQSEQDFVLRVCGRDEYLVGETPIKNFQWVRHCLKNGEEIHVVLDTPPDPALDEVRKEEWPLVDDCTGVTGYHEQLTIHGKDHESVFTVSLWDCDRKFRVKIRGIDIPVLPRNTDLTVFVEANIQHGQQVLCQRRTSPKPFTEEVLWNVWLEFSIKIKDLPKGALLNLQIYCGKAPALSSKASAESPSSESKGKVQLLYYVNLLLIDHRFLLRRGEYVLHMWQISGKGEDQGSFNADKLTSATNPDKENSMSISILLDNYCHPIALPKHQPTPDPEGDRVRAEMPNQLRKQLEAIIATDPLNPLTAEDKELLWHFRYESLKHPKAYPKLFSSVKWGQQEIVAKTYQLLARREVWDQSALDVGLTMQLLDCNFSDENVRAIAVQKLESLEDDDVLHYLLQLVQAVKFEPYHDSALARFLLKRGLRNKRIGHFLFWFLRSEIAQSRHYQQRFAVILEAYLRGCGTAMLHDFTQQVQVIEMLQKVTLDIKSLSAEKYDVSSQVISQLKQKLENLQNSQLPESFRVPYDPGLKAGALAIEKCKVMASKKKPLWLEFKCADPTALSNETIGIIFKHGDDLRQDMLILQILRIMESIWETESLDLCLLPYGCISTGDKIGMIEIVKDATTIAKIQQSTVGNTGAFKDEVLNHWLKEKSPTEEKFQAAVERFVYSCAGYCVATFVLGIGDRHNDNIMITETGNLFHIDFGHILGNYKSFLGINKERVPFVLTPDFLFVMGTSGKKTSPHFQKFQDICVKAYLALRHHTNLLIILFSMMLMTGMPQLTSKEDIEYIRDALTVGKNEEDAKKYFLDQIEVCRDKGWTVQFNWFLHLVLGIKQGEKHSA
PIK3CA (human), sequence (P42336 whole entry, looked up): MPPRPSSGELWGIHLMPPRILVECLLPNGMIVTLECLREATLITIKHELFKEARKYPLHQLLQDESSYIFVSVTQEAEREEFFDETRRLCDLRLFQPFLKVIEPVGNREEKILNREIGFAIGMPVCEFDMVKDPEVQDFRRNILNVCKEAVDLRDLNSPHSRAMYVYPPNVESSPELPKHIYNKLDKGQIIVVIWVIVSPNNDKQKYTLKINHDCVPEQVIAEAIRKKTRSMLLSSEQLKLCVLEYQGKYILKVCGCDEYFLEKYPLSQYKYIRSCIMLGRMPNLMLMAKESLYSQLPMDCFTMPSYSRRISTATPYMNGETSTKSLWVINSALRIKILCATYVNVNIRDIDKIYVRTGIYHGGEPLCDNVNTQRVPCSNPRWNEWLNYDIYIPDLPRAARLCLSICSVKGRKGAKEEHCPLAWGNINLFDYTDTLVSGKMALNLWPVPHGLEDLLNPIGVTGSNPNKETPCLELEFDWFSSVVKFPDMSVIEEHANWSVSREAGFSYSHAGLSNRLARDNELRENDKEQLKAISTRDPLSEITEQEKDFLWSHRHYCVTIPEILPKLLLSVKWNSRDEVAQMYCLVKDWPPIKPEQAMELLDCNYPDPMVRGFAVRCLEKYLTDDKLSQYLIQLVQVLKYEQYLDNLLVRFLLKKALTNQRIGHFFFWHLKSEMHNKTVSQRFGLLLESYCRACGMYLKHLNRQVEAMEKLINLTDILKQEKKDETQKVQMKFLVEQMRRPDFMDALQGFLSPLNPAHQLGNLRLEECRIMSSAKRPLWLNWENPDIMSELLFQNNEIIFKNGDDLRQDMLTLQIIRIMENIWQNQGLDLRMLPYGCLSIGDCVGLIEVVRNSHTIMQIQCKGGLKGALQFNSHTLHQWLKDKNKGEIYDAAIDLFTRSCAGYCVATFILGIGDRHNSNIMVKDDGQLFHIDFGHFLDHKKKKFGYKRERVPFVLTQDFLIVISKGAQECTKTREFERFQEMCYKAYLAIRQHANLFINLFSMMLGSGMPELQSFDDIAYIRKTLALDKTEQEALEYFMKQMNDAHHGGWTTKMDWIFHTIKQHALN
PIK3CD (Human), sequence (O00329 whole entry, looked up): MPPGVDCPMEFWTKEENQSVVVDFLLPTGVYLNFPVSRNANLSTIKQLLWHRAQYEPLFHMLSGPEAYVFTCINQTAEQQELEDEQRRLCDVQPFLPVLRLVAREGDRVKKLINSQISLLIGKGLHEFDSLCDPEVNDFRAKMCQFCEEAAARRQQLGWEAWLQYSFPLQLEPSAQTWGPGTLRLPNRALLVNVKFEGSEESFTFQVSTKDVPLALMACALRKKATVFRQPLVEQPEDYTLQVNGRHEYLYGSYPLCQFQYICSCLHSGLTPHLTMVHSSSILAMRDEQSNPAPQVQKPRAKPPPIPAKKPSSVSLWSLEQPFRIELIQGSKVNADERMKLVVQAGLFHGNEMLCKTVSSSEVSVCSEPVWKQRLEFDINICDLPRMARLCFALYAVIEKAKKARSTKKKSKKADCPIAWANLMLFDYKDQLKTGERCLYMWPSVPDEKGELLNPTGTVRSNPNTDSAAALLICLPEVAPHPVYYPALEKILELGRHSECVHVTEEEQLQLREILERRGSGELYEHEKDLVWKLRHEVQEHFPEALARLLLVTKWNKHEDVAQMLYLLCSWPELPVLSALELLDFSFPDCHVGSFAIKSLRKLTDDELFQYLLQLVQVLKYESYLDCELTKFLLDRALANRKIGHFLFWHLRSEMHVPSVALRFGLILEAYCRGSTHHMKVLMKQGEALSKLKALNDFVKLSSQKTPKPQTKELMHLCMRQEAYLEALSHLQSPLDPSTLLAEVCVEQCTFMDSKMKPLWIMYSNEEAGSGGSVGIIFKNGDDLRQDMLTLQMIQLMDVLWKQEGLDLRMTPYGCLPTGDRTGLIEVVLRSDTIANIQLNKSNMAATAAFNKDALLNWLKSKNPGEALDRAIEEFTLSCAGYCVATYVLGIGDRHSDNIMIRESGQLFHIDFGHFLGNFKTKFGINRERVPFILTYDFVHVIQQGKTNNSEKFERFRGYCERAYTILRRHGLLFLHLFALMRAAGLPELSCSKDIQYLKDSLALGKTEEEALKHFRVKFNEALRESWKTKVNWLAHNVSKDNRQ

IC50 (PIK3CA (human)) | IC50 (PIK3CD (Human)) | IC50 (PIK3CG (human)) | IC50 (PIK3CB (Human)) | Compound
100 to 1000 nM | < 100 nM | < 100 nM | 100 to 1000 nM | COCCN1CCN(C(=O)CNC(=O)Nc2nc3ccc(-c4cncc(S(=O)(=O)NC(C)(C)C)c4)cn3n2)CC1
100 to 1000 nM | < 100 nM | < 100 nM | 100 to 1000 nM | CN1CCN(C(=O)CNC(=O)Nc2nc3ccc(-c4cncc(S(=O)(=O)NC(C)(C)C)c4)cn3n2)CC1
– | < 100 nM | < 100 nM | – | CC(C)(C)NS(=O)(=O)c1cncc(-c2ccc3nc(NC(=O)NCC(=O)N4CCCC4)nn3c2)c1
– | < 100 nM | < 100 nM | 100 to 1000 nM | CC(C)(C)NS(=O)(=O)c1cncc(-c2ccc3nc(NC(=O)NCC(=O)N4CCC(N)CC4)nn3c2)c1
– | < 100 nM | < 100 nM | 100 to 1000 nM | CC(C)(C)NS(=O)(=O)c1cncc(-c2ccc3nc(NC(=O)NCCC(=O)N4CCCC4)nn3c2)c1
100 to 1000 nM | < 100 nM | < 100 nM | 100 to 1000 nM | CC(C)(C)NS(=O)(=O)c1cncc(-c2ccc3nc(NC(=O)NCC(=O)N4CCOCC4)nn3c2)c1
100 to 1000 nM | < 100 nM | < 100 nM | 100 to 1000 nM | CN(C)[C@H]1CCN(C(=O)CNC(=O)Nc2nc3ccc(-c4cncc(S(=O)(=O)NC(C)(C)C)c4)cn3n2)C1
100 to 1000 nM | < 100 nM | < 100 nM | – | CC(C)(C)NS(=O)(=O)c1cncc(-c2ccc3nc(NC(=O)NCC(=O)N4CCCCC4)nn3c2)c1

The next lines start with the compound.

Compound | IC50 (PIK3CA (human)) | IC50 (PIK3CD (Human)) | IC50 (PIK3CG (human)) | IC50 (PIK3CB (Human))
CC(C)NS(=O)(=O)c1cncc(-c2ccc3nc(NC(=O)NCC(=O)N4CCOCC4)nn3c2)c1 | 100 to 1000 nM | < 100 nM | < 100 nM | –
CS(=O)(=O)c1cncc(-c2ccc3nc(NC(=O)NCC(=O)N4CCOCC4)nn3c2)c1 | – | 100 to 1000 nM | < 100 nM | –
CN(C(=O)CNC(=O)Nc1nc2ccc(-c3cncc(S(=O)(=O)NC(C)(C)C)c3)cn2n1)C1CC1 | 100 to 1000 nM | < 100 nM | < 100 nM | –
O=C(NCC(=O)N1CCCC1)Nc1nc2ccc(-c3cncc(C(F)(F)F)c3)cn2n1 | – | – | < 100 nM | > 10000 nM
CC(C)(C)NS(=O)(=O)c1cncc(-c2cc(F)c3nc(NC(=O)NCC(=O)N4CCCC4)nn3c2)c1 | – | 100 to 1000 nM | < 100 nM | –
CC(C)NS(=O)(=O)c1cncc(-c2ccc3nc(NC(=O)NCC(=O)N4CCCC4)nn3c2)c1 | – | < 100 nM | < 100 nM | –
CC(C)(C)NS(=O)(=O)c1cncc(-c2ccc3nc(NC(=O)NCC(=O)NC4CC4)nn3c2)c1 | – | 100 to 1000 nM | < 100 nM | 100 to 1000 nM
CC(C)(C)NS(=O)(=O)c1cncc(-c2cc(F)c3nc(NC(=O)NCC(=O)N4CCOCC4)nn3c2)c1 | – | < 100 nM | < 100 nM | –
CC(C)(C)NS(=O)(=O)c1cncc(-c2ccc3nc(NC(=O)NCC(=O)NC4CCNCC4)nn3c2)c1 | – | 100 to 1000 nM | < 100 nM | 100 to 1000 nM
CC(C)(C)NS(=O)(=O)c1cncc(-c2ccc3nc(NC(=O)NCCC(=O)N4CCCCC4)nn3c2)c1 | – | < 100 nM | < 100 nM | –
